Numbers after ± are expanded uncertainties.
Key:
[1] = Molar enthalpy of transition or fusion; conditions: Crystal; DSC
[2] = Crystal; DTA

For c1ccc2nsnc2c1 [2,1,3-benzothiadiazole], the “Molar enthalpy of transition or fusion” value [1] was 16.3 ± 0.39 kJ/mol and the Triple point temperature [2] was 316.96 ± 0.39 K.
